In patent US9718790B2, “Triazine derivative and pharmaceutical composition having an analgesic activity comprising the same” (SHIONOGI & CO., LTD., priority 2010, dated 2017):

Molecular target: human P2X3 receptor (Homo sapiens (Human), UniProt P56373)
Assay: Evaluation of human P2X3 receptor inhibitory activity (Fluo-3 calcium fluorescence, FDSS 3000, ATP stimulation);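 further: stimulus was 50 nM ATP with fluorescence followed for 3 min, and the response per well was peak post-ATP fluorescence divided by the reading at measurement start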
Assay type: cell-based
Details: C6BU-1 cells stably expressing human P2X3 receptor

Chain of human P2X3 receptor (P56373 whole entry): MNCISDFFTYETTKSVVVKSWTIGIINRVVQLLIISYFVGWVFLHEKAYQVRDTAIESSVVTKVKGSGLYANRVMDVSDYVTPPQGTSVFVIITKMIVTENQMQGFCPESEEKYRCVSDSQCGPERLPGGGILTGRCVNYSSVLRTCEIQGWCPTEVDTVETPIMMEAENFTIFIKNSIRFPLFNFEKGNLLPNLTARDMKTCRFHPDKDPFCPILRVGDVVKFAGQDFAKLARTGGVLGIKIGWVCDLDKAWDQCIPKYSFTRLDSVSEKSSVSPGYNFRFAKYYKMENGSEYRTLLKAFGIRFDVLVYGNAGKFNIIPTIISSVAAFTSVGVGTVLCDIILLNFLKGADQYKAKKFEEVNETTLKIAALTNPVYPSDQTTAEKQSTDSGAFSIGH

Row | SMILES | IC50 [nM]
1 | CC(C)Oc1ccc(/N=c2\[nH]c(=O)n(CCCN/C(=N\C#N)Oc3ccccc3)c(=O)n2Cc2ccc(Cl)cc2)cc1F [Compound I-0613] | 11
2 | CC(C)Oc1ccc(/N=c2\[nH]c(=O)n(C[C@@H]3COC(C)(C)O3)c(=O)n2Cc2ccc(Cl)cc2)cc1Cl [Compound I-0614] | 10
3 | CNC(=NC#N)NCCCn1c(=O)[nH]/c(=N\c2ccc(OC(C)C)c(F)c2)n(Cc2ccc(Cl)cc2)c1=O [Compound I-0615] | 5
4 | CC(C)Oc1ccc(/N=c2\[nH]c(=O)n(C[C@@H](O)CO)c(=O)n2Cc2ccc(Cl)cc2)cc1Cl [Compound I-0616] | 10
5 | COC(=O)[C@@H](C)Cn1c(=O)[nH]/c(=N\c2ccc(OC(C)C)c(F)c2)n(Cc2ccc(F)cc2)c1=O [Compound I-0617] | 67
6 | COC(=O)[C@@H](C)Cn1c(=O)[nH]/c(=N\c2ccc(OC(C)C)cc2)n(Cc2ccc(F)cc2)c1=O [Compound I-0618] | 121
7 | CCCOc1ccc(/N=c2\[nH]c(=O)n(C[C@H](C)C(=O)OC)c(=O)n2Cc2ccc(Cl)cc2)cc1 [Compound I-0619] | 14
8 | CCCCc1ccc(/N=c2\[nH]c(=O)n(C[C@H](C)C(=O)OC)c(=O)n2Cc2ccc(Cl)cc2)cc1 [Compound I-0620] | 44
9 | CCCc1ccc(/N=c2\[nH]c(=O)n(C[C@H](C)C(=O)OC)c(=O)n2Cc2ccc(Cl)cc2)cc1 [Compound I-0621] | 58
10 | COC(=O)[C@@H](C)Cn1c(=O)[nH]/c(=N\c2cccc(C(F)(F)F)c2)n(Cc2ccc(Cl)cc2)c1=O [Compound I-0622] | 30
11 | CCCOc1ccc(/N=c2\[nH]c(=O)n(C[C@H](C)C(=O)O)c(=O)n2Cc2ccc(Cl)cc2)cc1 [Compound I-0623] | 20
12 | CCCCc1ccc(/N=c2\[nH]c(=O)n(C[C@H](C)C(=O)O)c(=O)n2Cc2ccc(Cl)cc2)cc1 [Compound I-0624] | 42
13 | COC(=O)[C@@H](C)Cn1c(=O)[nH]/c(=N\c2ccc(OC(C)C)c(C)c2)n(Cc2ccc(F)cc2)c1=O [Compound I-0625] | 66
14 | COC(=O)[C@@H](C)Cn1c(=O)[nH]/c(=N\c2ccc(OC(C)C)c(Cl)c2)n(Cc2ccc(F)cc2)c1=O [Compound I-0626] | 22
15 | CCCc1ccc(/N=c2\[nH]c(=O)n(C[C@H](C)C(=O)O)c(=O)n2Cc2ccc(Cl)cc2)cc1 [Compound I-0627] | 91
16 | C[C@@H](Cn1c(=O)[nH]/c(=N\c2cccc(C(F)(F)F)c2)n(Cc2ccc(Cl)cc2)c1=O)C(=O)O [Compound I-0628] | 61
17 | Cc1cc(/N=c2\[nH]c(=O)n(C[C@H](C)C(=O)O)c(=O)n2Cc2ccc(F)cc2)ccc1OC(C)C [Compound I-0629] | 127
18 | CC(C)Oc1ccc(/N=c2\[nH]c(=O)n(C[C@H](C)C(=O)O)c(=O)n2Cc2ccc(F)cc2)cc1Cl [Compound I-0630] | 30
19 | COC(=O)[C@H](C)Cn1c(=O)[nH]/c(=N\c2ccc(OC(C)C)c(C)c2)n(CC2CCCCC2)c1=O [Compound I-0631] | 10
20 | CCOc1ccc(/N=c2\[nH]c(=O)n(C[C@@H](C)C(=O)OC)c(=O)n2CC2CCCCC2)cc1Cl [Compound I-0632] | 11
21 | CC(C)Oc1ccc(/N=c2\[nH]c(=O)n(C[C@H]3COC(C)(C)O3)c(=O)n2Cc2ccc(Cl)cc2)cc1Cl [Compound I-0633] | 4
22 | CC(C)Oc1ccc(/N=c2\[nH]c(=O)n(CCCNC(=N)N)c(=O)n2Cc2ccc(Cl)cc2)cc1F [Compound I-0634] | 11

Row | SMILES | IC50 [nM]
23 | CC(C)Oc1ccc(/N=c2\[nH]c(=O)n(CC(=O)NN)c(=O)n2Cc2ccc(Cl)cc2)cc1F [Compound I-0635] | 19
24 | CC(C)Oc1ccc(/N=c2\[nH]c(=O)n(CC(=O)NO)c(=O)n2Cc2ccc(Cl)cc2)cc1F [Compound I-0636] | 10
25 | CC(C)Oc1ccc(/N=c2\[nH]c(=O)n(C[C@H](C)C(=O)O)c(=O)n2Cc2ccc(F)cc2)cc1F [Compound I-0637] | 69
26 | CC(C)Oc1ccc(/N=c2\[nH]c(=O)n(C[C@H](O)CO)c(=O)n2Cc2ccc(Cl)cc2)cc1Cl [Compound I-0638, (R)-1-(4-chlorobenzyl)6-(3-chloro-4-isopropoxyphenylamino)-3-(2,3-dihydroxypropyl)-1,3,5-triazinane-2,4-dion] | 6
27 | CC(C)Oc1ccc(/N=c2\[nH]c(=O)n(C[C@H](C)C(=O)O)c(=O)n2Cc2ccc(F)cc2)cc1 [Compound I-0639] | 216
28 | COC(=O)C(C)(C)n1c(=O)[nH]/c(=N\c2ccc(OC(C)C)c(Cl)c2)n(Cc2ccc(Cl)cc2)c1=O [Compound I-0640] | 5
29 | COc1ccc(Cn2c(=O)[nH]/c(=N\c3ccc(OC(C)C)c(F)c3)n(Cc3ccc(Cl)cc3)c2=O)cn1 [Compound I-0641] | 26
30 | COc1cc(Cn2c(=O)[nH]/c(=N\c3ccc(OC(C)C)c(F)c3)n(Cc3ccc(Cl)cc3)c2=O)ccn1 [Compound I-0642] | 5
31 | CC(C)Oc1ccc(/N=c2\[nH]c(=O)n(Cc3n[nH]c(=O)o3)c(=O)n2Cc2ccc(Cl)cc2)cc1F [Compound I-0643] | 54
32 | CC(C)Oc1ccc(/N=c2\[nH]c(=O)n(CCC(=O)NN)c(=O)n2Cc2ccc(Cl)cc2)cc1F [Compound I-0644, 1-(4-chlorobenzyl)-6-(3-fluoro-4-isopropoxyphenylimino)-3-(2-hydrazinecarbonylethyl)-1,3,5-triazinane-2,4-dion] | 40
33 | CC(C)Oc1ccc(/N=c2\[nH]c(=O)n(CCCS(=O)(=O)O)c(=O)n2Cc2ccc(Cl)cc2)cc1F [Compound I-0645] | 102
34 | CC(C)Oc1ccc(/N=c2\[nH]c(=O)n(CCc3n[nH]c(=O)o3)c(=O)n2Cc2ccc(Cl)cc2)cc1F [Compound I-0646] | 28
35 | Cc1cc(/N=c2\[nH]c(=O)n(C[C@@H](C)C(=O)O)c(=O)n2CC2CCCCC2)ccc1OC(C)C [Compound I-0647] | 316
36 | CCOc1ccc(/N=c2\[nH]c(=O)n(C[C@@H](C)C(=O)O)c(=O)n2CC2CCCCC2)cc1Cl [Compound I-0648] | 336
37 | CC(C)Oc1ccc(/N=c2\[nH]c(=O)n(Cc3ccc(=O)[nH]c3)c(=O)n2Cc2ccc(Cl)cc2)cc1F [Compound I-0649] | 21
38 | CC(C)Oc1ccc(/N=c2\[nH]c(=O)n(Cc3cc[nH]c(=O)c3)c(=O)n2Cc2ccc(Cl)cc2)cc1F [Compound I-0650] | 20
39 | CC(C)Oc1ccc(/N=c2\[nH]c(=O)n(C(C)(C)C(=O)O)c(=O)n2Cc2ccc(Cl)cc2)cc1Cl [Compound I-0651] | 97
40 | CC(C)Oc1ccc(/N=c2\[nH]c(=O)n(CCN/C(=N\C#N)Oc3ccccc3)c(=O)n2Cc2ccc(Cl)cc2)cc1F [Compound I-0652, 1-(4-chlorobenzyl)-6-(3-fluoro-4-isopropoxyphenylimino)-3-(4-cyanoimino-4-phenoxy-3-azabutyl)-1,3,5-triazinane-2,4-dion] | 102
41 | CNC(=NC#N)NCCn1c(=O)[nH]/c(=N\c2ccc(OC(C)C)c(F)c2)n(Cc2ccc(Cl)cc2)c1=O [Compound I-0653, 1-(4-chlorobenzyl)-6-(3-fluoro-4-isopropoxyphenylimino)-3-(4-cyanoimino-4-methylamino-3-azabutyl)-1,3,5-triazinane-2,4-dion] | 37
42 | CC(C)Oc1ccc(/N=c2\[nH]c(=O)n(CCS(=O)(=O)O)c(=O)n2Cc2ccc(Cl)cc2)cc1F [Compound I-0654] | 26
43 | COC(=O)[C@@H](C)Cn1c(=O)[nH]/c(=N\c2ccc(OC(F)F)c(F)c2)n(Cc2ccc(Cl)cc2)c1=O [Compound I-0655] | 67
